Results on 14 compounds are retold here after US9493446B2, “Orexin receptor antagonists which are [ortho bi-(hetero-)aryl]-[2-(meta bi-(hetero-)aryl)-pyrrolidin-1-yl]-methanone derivatives” (Actelion Pharmaceuticals Ltd, priority 2012, dated 2016).

SMILES strings stand for the structures. Where two headings read alike, the source gives them in different places.

One assay deals with orexin-1 (Homo sapiens (Human), UniProt O43613). In words: Intracellular calcium measurement (FLIPR), CHO cells expressing human orexin-1 receptor, 3 nM orexin-A. The class given is cell-based. To be noted: CHO cells expressing human orexin-1 receptor, FLIPR, 3 nM orexin-A; geometric mean if determined several times; read-out: IC50 OX1. In short, it runs like this: (§1)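 Fluo-4 AM-loaded CHO cells; antagonist preincubation 120 min, then 3 nM orexin-A (final) in HBSS/0.1% BSA/20 mM HEPES. FLIPR read at 1 s intervals; peak height vs. agonist-plus-vehicle control → IC50.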
Sequence of orexin-1 (O43613 whole entry): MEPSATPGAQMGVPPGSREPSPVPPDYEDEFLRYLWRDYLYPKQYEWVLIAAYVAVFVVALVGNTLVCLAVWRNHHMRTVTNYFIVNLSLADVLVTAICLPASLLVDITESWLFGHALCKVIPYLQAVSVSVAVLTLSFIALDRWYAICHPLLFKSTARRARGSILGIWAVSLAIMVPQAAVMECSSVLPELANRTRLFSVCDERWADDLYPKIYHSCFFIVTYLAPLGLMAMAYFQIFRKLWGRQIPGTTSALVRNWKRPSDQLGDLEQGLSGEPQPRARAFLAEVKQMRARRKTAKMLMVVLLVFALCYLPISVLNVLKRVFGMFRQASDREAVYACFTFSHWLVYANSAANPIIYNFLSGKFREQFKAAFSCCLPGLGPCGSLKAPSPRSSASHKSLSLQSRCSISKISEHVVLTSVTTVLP

The target in another assay is human orexin-2 receptor (Homo sapiens (Human), UniProt O43614). Nature of the assay: Intracellular calcium measurement (FLIPR), CHO cells expressing human orexin-2 receptor, 3 nM orexin-A. It is filed as cell-based. The note with it: read-out: IC50 OX2. The procedure, abridged:
as §1

The mark [1] stands for this setting: CHO cells expressing human orexin-2 receptor, FLIPR, 3 nM orexin-A, geometric mean if determined several times.

Sequence of human orexin-2 receptor (O43614 whole entry): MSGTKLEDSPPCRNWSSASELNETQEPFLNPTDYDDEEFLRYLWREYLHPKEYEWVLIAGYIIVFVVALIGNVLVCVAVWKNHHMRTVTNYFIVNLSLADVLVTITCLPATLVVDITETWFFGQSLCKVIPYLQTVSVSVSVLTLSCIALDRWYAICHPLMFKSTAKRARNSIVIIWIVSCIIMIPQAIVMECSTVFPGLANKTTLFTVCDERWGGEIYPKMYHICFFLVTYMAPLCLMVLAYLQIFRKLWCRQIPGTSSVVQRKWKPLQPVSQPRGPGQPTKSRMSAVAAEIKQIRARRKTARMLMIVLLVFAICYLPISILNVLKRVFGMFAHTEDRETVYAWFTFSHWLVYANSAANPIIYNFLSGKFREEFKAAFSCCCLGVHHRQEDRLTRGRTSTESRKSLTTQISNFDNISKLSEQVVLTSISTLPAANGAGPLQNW

In the case of `Cc1nc(C(=O)N2CCC[C@H]2c2nnc(-c3ccccc3OC(F)(F)F)o2)c(-c2cccc(F)c2)s1` [compound 443, [5-(3-Fluoro-phenyl)-2-methyl-thiazol-4-yl]-{(S)-2-[5-(2-trifluoromethoxy-phenyl)-[1,3,4]oxadiazol-2-yl]-pyrrolidin-1-yl}-methanone], the concentration for half-maximal inhibition (IC50) at orexin-1 was 68 nM; on human orexin-2 receptor (setting [1]), 45 nM.
Turning to `Cc1nc(C(=O)N2CCC[C@H]2c2nnc(-c3ccccc3OC(F)(F)F)o2)c(-c2ccccc2F)s1` [compound 444, [5-(2-Fluoro-phenyl)-2-methyl-thiazol-4-yl]-{(S)-2-[5-(2-trifluoromethoxy-phenyl)-[1,3,4]oxadiazol-2-yl]-pyrrolidin-1-yl}-methanone], the figures for the IC50 on orexin-1 and on human orexin-2 receptor (setting [1]) were 83 nM and 60 nM, respectively.
For the compound `COc1cc(C(=O)N2CCC[C@H]2c2nnc(-c3cccc(Cl)c3C)o2)c(-n2nccn2)cc1C` [compound 445], the half-inhibitory concentration (IC50) worked out at 157 nM on orexin-1 and 9 nM at human orexin-2 receptor.
Consider `COc1cc(C(=O)N2CCC[C@H]2c2nnc(-c3cccc(Cl)c3C)o2)c(-n2nccn2)cc1Cl` [compound 446], for which the IC50 at orexin-1 came to 82 nM; at human orexin-2 receptor (setting [1]), 6 nM.
In the same order, the values of `Cc1cc(C(=O)N2CCC[C@H]2c2nnc(-c3cccc(Cl)c3C)o2)c(-n2nccn2)cc1C` [compound 447] are 30 nM and 5 nM.
In the same order, the values of `Cc1ccc(-n2nccn2)c(C(=O)N2CCC[C@H]2c2nnc(-c3ccccc3OC(F)(F)F)[nH]2)c1` [compound 465, (5-Methyl-2-[1,2,3]triazol-2-yl-phenyl)-{(S)-2-[5-(2-trifluoromethoxy-phenyl)-4H-[1,2,4]triazol-3-yl]-pyrrolidin-1-yl}-methanone] are 76 nM and 10 nM.
In the case of `COc1ccccc1-c1nnc([C@@H]2CCCN2C(=O)c2cc(C)c(C)cc2-n2nccn2)[nH]1` [compound 466, (4,5-Dimethyl-2-[1,2,3]triazol-2-yl-phenyl)-{(S)-2-[5-(2-methoxy-phenyl)-4H-[1,2,4]triazol-3-yl]-pyrrolidin-1-yl}-methanone], the IC50 came out at 26 nM on orexin-1 and 69 nM at human orexin-2 receptor (setting [1]).
In the same order, the values of `COc1cc(C(=O)N2CCC[C@H]2c2nnc(-c3ccccc3OC)[nH]2)c(-n2nccn2)cc1Cl` [compound 467] are 63 nM and 10 nM.
For `COc1cc(C(=O)N2CCC[C@H]2c2nnc(-c3ccccc3OC)[nH]2)c(-n2nccn2)cc1C` [compound 468, (5-Methoxy-4-methyl-2-[1,2,3]triazol-2-yl-phenyl)-{(S)-2-[5-(2-methoxy-phenyl)-4H-[1,2,4]triazol-3-yl]-pyrrolidin-1-yl}-methanone], the IC50 came out at 84 nM at orexin-1 and 35 nM at human orexin-2 receptor (setting [1]).
Take `COc1ccccc1-c1nnc([C@@H]2CCCN2C(=O)c2cc(Cl)c(C)cc2-n2nccn2)[nH]1` [compound 469]: the values for the half-inhibitory concentration (IC50) on orexin-1 and at human orexin-2 receptor were 25 nM and 45 nM, respectively.
As for `COc1ccccc1-c1nnc([C@@H]2CCCN2C(=O)c2ccc(Cl)cc2-n2nccn2)[nH]1` [compound 470], the IC50 stood at 57 nM on orexin-1 and 31 nM on human orexin-2 receptor.
For the compound `COc1ccccc1-c1nnc([C@@H]2CCCN2C(=O)c2ccc(C)cc2-n2nccn2)[nH]1` [compound 471, {(S)-2-[5-(2-Methoxy-phenyl)-4H-[1,2,4]triazol-3-yl]-pyrrolidin-1-yl}-(4-methyl-2-[1,2,3]triazol-2-yl-phenyl)-methanone], the IC50 at orexin-1 was determined as 49 nM; at human orexin-2 receptor (setting [1]), 127 nM.
For the compound `COc1cc(C(=O)N2CCC[C@H]2c2nnc(-c3cccc(F)c3OC)[nH]2)c(-n2nccn2)cc1Cl` [compound 472], the 50% inhibitory concentration (IC50) at orexin-1 was 19 nM; on human orexin-2 receptor (setting [1]), 2 nM.
In the same order, the values of `COc1cc(C(=O)N2CCC[C@H]2c2nnc(-c3cccc(F)c3OC)[nH]2)c(-n2nccn2)cc1C` [compound 473, {(S)-2-[5-(3-Fluoro-2-methoxy-phenyl)-4H-[1,2,4]triazol-3-yl]-pyrrolidin-1-yl}-(5-methoxy-4-methyl-2-[1,2,3]triazol-2-yl-phenyl)-methanone] are 57 nM and 6 nM.
